Reference: patent US8735414B2 (priority 2009, dated 2014)
pIC50: −log10 of the molar value.

Experiments:
[1] = system: bicistronic HCV replicon (replicon RNA, GenBank Accession No. AJ242654); experiment: HCV Replicon Assay; type: cell-based; details: Hepatitis C virus, 72 h, read-out: Replicon IC50

SMILES | pIC50 [1] | melting point
N#Cc1ccc2c(C#N)c(-c3ccc(S(=O)(=O)NC(CF)CF)cn3)n(C3CCCC3)c2c1 [compound 468, 6-(3,6-dicyano-1-cyclopentyl-1H-indol-2-yl)-N-(1,3-difluoropropan-2-yl)pyridine-3-sulfonamide] | > 6.30 | 219 to 221 °C
Cc1cc2c(C#N)c(-c3ncc(S(=O)(=O)NC(C)C)cn3)n(C3CCC3)c2cc1Cl [compound 507, 2-(6-chloro-3-cyano-1-cyclobutyl-5-methyl-1H-indol-2-yl)-N-(propan-2-yl)pyrimidine-5-sulfonamide] | 5.70 to 6.30 | 217 to 218 °C
CC(C)(NS(=O)(=O)c1ccc(-c2c(C#N)c3ccc(OC(F)F)cc3n2-c2ccccc2)nc1)C(F)(F)F [compound 612, 6-[3-cyano-6-(difluoromethoxy)-1-phenyl-1H-indol-2-yl]-N-(1,1,1-trifluoro-2-methylpropan-2-yl)pyridine-3-sulfonamide] | > 6.30 | 218 to 220 °C
N#Cc1c(-c2ccc(S(=O)(=O)NC(CF)CF)cn2)n(C2CCC2)c2cc(OC(F)F)c(F)cc12 [compound 542, 6-[3-cyano-1-cyclobutyl-6-(difluoromethoxy)-5-fluoro-1H-indol-2-yl]-N-(1,3-difluoropropan-2-yl)pyridine-3-sulfonamide] | > 6.30 | 160 to 164 °C
CCn1c(-c2ncc(S(=O)(=O)NC(C)C)cn2)c(C#N)c2cc(OC(F)F)ccc21 [compound 242, 2-[3-cyano-5-(difluoromethoxy)-1-ethyl-1H-indol-2-yl]-N-(propan-2-yl)pyrimidine-5-sulfonamide] | 5.70 to 6.30 | 180 to 185 °C
CCc1ccc2c(C#N)c(-c3ccc(S(=O)(=O)NC(CF)CF)cn3)n(C3CCCC3)c2c1 [compound 310, 6-(3-cyano-1-cyclopentyl-6-ethyl-1H-indol-2-yl)-N-(1,3-difluoropropan-2-yl)pyridine-3-sulfonamide] | > 6.30 | 204.5 to 205 °C
CC[C@H](NS(=O)(=O)c1ccc(-c2c(C#N)c3cc(F)c(C)cc3n2C2CCCC2)nc1)C(F)(F)F [compound 821, 6-(3-cyano-1-cyclopentyl-5-fluoro-6-methyl-1H-indol-2-yl)-N-[(2S)-1,1,1-trifluorobutan-2-yl]pyridine-3-sulfonamide] | > 6.30 | 201 to 207 °C
C[C@H](NS(=O)(=O)c1ccc(-c2c(C#N)c3ccc(Cl)cc3n2-c2ccccn2)nc1)C1CC1 [compound 488, 6-[6-chloro-3-cyano-1-(pyridin-2-yl)-1H-indol-2-yl]-N-[(1S)-1-cyclopropylethyl]pyridine-3-sulfonamide] | > 6.30 | 199 to 201 °C
CC(C)(C)S(=O)(=O)Nc1ccc(-c2c(C#N)c3cc(F)c(OC(F)F)cc3n2C2CCCCC2)cn1 [compound 1065, N-{5-[3-cyano-1-cyclohexyl-6-(difluoromethoxy)-5-fluoro-1H-indol-2-yl]pyridin-2-yl}-2-methylpropane-2-sulfonamide] | > 6.30 | 278 to 280 °C
COc1ccc2c(C#N)c(-c3ccc(S(=O)(=O)N[C@H](C)C(F)(F)F)cn3)n(C3CCCC3)c2c1 [compound 431, 6-(3-cyano-1-cyclopentyl-6-methoxy-1H-indol-2-yl)-N-[(2R)-1,1,1-trifluoropropan-2-yl]pyridine-3-sulfonamide] | > 6.30 | 209 to 216 °C
Cc1ccc2c(c1)c(C#N)c(-c1ncc(S(=O)(=O)NC(CF)CF)cn1)n2C1CCCC1 [compound 160, 2-(3-cyano-1-cyclopentyl-5-methyl-1H-indol-2-yl)-N-(1,3-difluoropropan-2-yl)pyrimidine-5-sulfonamide] | > 6.30 | 202 to 207 °C
N#Cc1c(-c2ccc(S(=O)(=O)NC(CF)CF)cn2)n(C2CCCC2)c2ccc(OC(F)F)cc12 [compound 33, 6-[3-cyano-1-cyclopentyl-5-(difluoromethoxy)-1H-indol-2-yl]-N-(1,3-difluoropropan-2-yl)pyridine-3-sulfonamide] | > 6.30 | 172 to 175 °C
N#Cc1c(-c2ncc(S(=O)(=O)NC(CF)CF)cn2)n(C2CCC2)c2cc(Cl)ccc12 [compound 176, 2-(6-chloro-3-cyano-1-cyclobutyl-1H-indol-2-yl)-N-(1,3-difluoropropan-2-yl)pyrimidine-5-sulfonamide] | > 6.30 | 243 to 246 °C
Cc1ccc2c(c1)c(C#N)c(-c1ccc(S(=O)(=O)N[C@@H](C)C(F)(F)F)cn1)n2-c1ccccc1 [compound 921, 6-(3-cyano-5-methyl-1-phenyl-1H-indol-2-yl)-N-[(2S)-1,1,1-trifluoropropan-2-yl]pyridine-3-sulfonamide] | > 6.30 | 160 to 165 °C
Cc1cc2c(cc1F)c(C#N)c(-c1ccc(S(=O)(=O)N[C@@H](C)C(F)(F)F)cn1)n2-c1cnccn1 [compound 817, 6-[3-cyano-5-fluoro-6-methyl-1-(pyrazin-2-yl)-1H-indol-2-yl]-N-[(2S)-1,1,1-trifluoropropan-2-yl]pyridine-3-sulfonamide] | > 6.30 | 220 to 223 °C
C[C@H](NS(=O)(=O)c1ccc(-c2c(C#N)c3ccc(OC(F)(F)F)cc3n2C2CCCC2)nc1)C(F)(F)F [compound 358, 6-[3-cyano-1-cyclopentyl-6-(trifluoromethoxy)-1H-indol-2-yl]-N-[(2S)-1,1,1-trifluoropropan-2-yl]pyridine-3-sulfonamide] | > 6.30 | 168 to 170 °C
Cc1cc2c(cc1Cl)c(C#N)c(-c1ccc(S(=O)(=O)N[C@@H](C)C(F)(F)F)cn1)n2-c1ccc(F)cn1 [compound 804, 6-[5-chloro-3-cyano-1-(5-fluoropyridin-2-yl)-6-methyl-1H-indol-2-yl]-N-[(2S)-1,1,1-trifluoropropan-2-yl]pyridine-3-sulfonamide] | > 6.30 | 210 to 212 °C
CCn1c(-c2ccc(NS(=O)(=O)C3CC3)cn2)c(C#N)c2ccc(OC(C)C)cc21 [compound 285, N-{6-[3-cyano-1-ethyl-6-(propan-2-yloxy)-1H-indol-2-yl]pyridin-3-yl}cyclopropanesulfonamide] | 5.70 to 6.30 | 180 to 185 °C
COc1ccc2c(c1)c(C#N)c(-c1ncc(S(=O)(=O)N[C@@H](C)C3CC3)cn1)n2C1CCC1 [compound 570, 2-(3-cyano-1-cyclobutyl-5-methoxy-1H-indol-2-yl)-N-[(1S)-1-cyclopropylethyl]pyrimidine-5-sulfonamide] | 5.70 to 6.30 | 182 to 183 °C
C[C@H](NS(=O)(=O)c1ccc(-c2c(C#N)c3ccc(OC(F)F)cc3n2-c2ncccn2)nc1)C(F)(F)F [compound 512, 6-[3-cyano-6-(difluoromethoxy)-1-(pyrimidin-2-yl)-1H-indol-2-yl]-N-[(2S)-1,1,1-trifluoropropan-2-yl]pyridine-3-sulfonamide] | > 6.30 | 186 to 189 °C
C[C@H](NS(=O)(=O)c1ccc(-c2c(C#N)c3c(F)cc(OC(F)F)cc3n2C2CCC2)nc1)C(F)(F)F [compound 797, 6-[3-cyano-1-cyclobutyl-6-(difluoromethoxy)-4-fluoro-1H-indol-2-yl]-N-[(2S)-1,1,1-trifluoropropan-2-yl]pyridine-3-sulfonamide] | > 6.30 | 210 to 212 °C
N#Cc1c(-c2ncc(S(=O)(=O)NC(CF)CF)cn2)n(CC2CC2)c2cc(CC(F)F)ccc12 [compound 621, 2-[3-cyano-1-(cyclopropylmethyl)-6-(2,2-difluoroethyl)-1H-indol-2-yl]-N-(1,3-difluoropropan-2-yl)pyrimidine-5-sulfonamide] | > 6.30 | 180 to 188 °C
CC(C)n1c(-c2ncc(S(=O)(=O)NC(CF)CF)cn2)c(C#N)c2ccc(F)cc21 [compound 165, 2-[3-cyano-6-fluoro-1-(propan-2-yl)-1H-indol-2-yl]-N-(1,3-difluoropropan-2-yl)pyrimidine-5-sulfonamide] | 5.70 to 6.30 | 149 to 150 °C
Cc1ccc2c(c1)c(C#N)c(-c1ccc(S(=O)(=O)NC(CF)CF)cn1)n2C1CCCC1 [compound 158, 6-(3-cyano-1-cyclopentyl-5-methyl-1H-indol-2-yl)-N-(1,3-difluoropropan-2-yl)pyridine-3-sulfonamide] | > 6.30 | 168 to 173 °C
C[C@H](NS(=O)(=O)c1cnc(-c2c(C#N)c3cc(Cl)ccc3n2C2CCCC2)nc1)C(F)(F)F [compound 419, 2-(5-chloro-3-cyano-1-cyclopentyl-1H-indol-2-yl)-N-[(2S)-1,1,1-trifluoropropan-2-yl]pyrimidine-5-sulfonamide] | 5.70 to 6.30 | 243 to 249 °C
N#Cc1c(-c2ccc(S(=O)(=O)NC3(C(F)(F)F)CC3)cn2)n(C2CCC2)c2ccc(F)cc12 [compound 329, 6-(3-cyano-1-cyclobutyl-5-fluoro-1H-indol-2-yl)-N-[1-(trifluoromethyl)cyclopropyl]pyridine-3-sulfonamide] | > 6.30 | 176 to 183 °C
CCc1cc2c(cc1F)c(C(=O)O)c(-c1ccc(NS(=O)(=O)C(C)(C)C)nc1)n2[C@H](C)C1CC1 [compound 1103, 2-{6-[(tert-butylsulfonyl)amino]pyridin-3-yl}-1-[(1R)-1-cyclopropylethyl]-6-ethyl-5-fluoro-1H-indole-3-carboxylic acid] | 5.70 to 6.30 | 165 °C (dec.)
Cc1ccc2c(C#N)c(-c3ccc(S(=O)(=O)N[C@@H](C)C(F)(F)F)cn3)n(-c3ncccn3)c2c1 [compound 677, 6-[3-cyano-6-methyl-1-(pyrimidin-2-yl)-1H-indol-2-yl]-N-[(2S)-1,1,1-trifluoropropan-2-yl]pyridine-3-sulfonamide] | > 6.30 | 195 to 198 °C
CCCS(=O)(=O)Nc1ccc(-c2c(C#N)c3ccc(Oc4ncccn4)cc3n2C2CCC2)nc1 [compound 271, N-{6-[3-cyano-1-cyclobutyl-6-(pyrimidin-2-yloxy)-1H-indol-2-yl]pyridin-3-yl}propane-1-sulfonamide] | 5.70 to 6.30 | 206 to 208 °C
